Results published in patent publication US9751842B2, “Phthalazine derivatives” (Merck Patent GmbH, priority 2013, dated 2017).
Read-outs that look alike come from different tables or passages of the source.

How the values were obtained:
[1] = biological target: T1, GST-tagged Tankyrase-1 (1023-1327 aa) (Homo sapiens, UniProt O95271); experiment: Tankyrase 1 autoparsylation HTRF enzyme assay; assay type: biochemical
T1 construct: GST-tagged Tankyrase-1 (1023-1327 aa)
Procedure: (§1) Biochemical Activity Testing of Tankyrase 1 and 2: Autoparsylation Assay
(§2) The autoparsylation assay is run in two steps: the enzymatic reaction in which GST-tagged Tankyrase-1, resp Tankyrase-2 transferred biotinylated ADP-ribose to itself from biotinylated NAD as co-substrate and the detection reaction where a time resolved FRET between cryptate labelled anti-GST bound to the GST tag of the enzyme and Xlent® labelled-streptavidin bound the biotin-parsylation residue is analysed. The autoparsylation activity was detectable directly via the increase in HTRF signal.
(§3) The autoparsylation assay is performed as 384-well HTRF® (Cisbio, Codolet, France) assay format in Greiner low volume nb 384-well microtiter plates and is used for high throughput screen. 250 nM GST-tagged Tankyrase-1 (1023-1327 aa), respectively about 250 nM GST-tagged Tankyrase-2 (873-1166 aa) and 5 μM bio-NAD (Biolog, Life science Inst., Bremen, Germany) as co-substrate are incubated in a total volume of 5 μl (50 mM HEPES, 4 mM Mg-chloride, 0.05% Pluronic F-68, 1.4 mM DTT, 0.5% DMSO, pH 7.7) in the absence or presence of the test compound (10 dilution concentrations) for 90 min at 30° C. The reaction is stopped by the addition of 1 μl 50 mM EDTA solution. 2 μl of the detection solution (1.6 μM SA-Xlent® (Cisbio, Codolet, France), 7.4 nM Anti-GST-K® (Eu-labelled anti-GST, Cisbio, Codolet, France) in 50 mM HEPES, 800 mM KF, 0.1° A. BSA, 20 mM EDTA, 0.1% CHAPS, pH 7.0) are added. After 1 h incubation at room temperature the HTRF is measured with an Envision multimode reader (Perkin Elmer LAS Germany GmbH) at excitation wavelength 340 nm (laser mode) and emission wavelengths 615 nm and 665 nm. The ratio of the emission signals is determined. The full value used is the inhibitor-free reaction. The pharmacological zero value used is XAV-939 (Tocris) in a final concentration of 5 μM. The inhibitory values (IC50) are determined using either the program Symyx Assay Explorer® or Condosseo® from GeneData.

[2] = biological target: T2, GST-tagged Tankyrase-2 (873-1166 aa) (Homo sapiens, UniProt Q9H2K2); experiment: Tankyrase 2 autoparsylation HTRF enzyme assay; assay type: biochemical
T2 construct: GST-tagged Tankyrase-2 (873-1166 aa)
Procedure: as §1, §2, §3

His-tagged Parp-1 = biological target: T3, His-tagged Parp-1 (Homo sapiens, UniProt P09874); experiment: PARP-1 autoparsylation HTRF assay; assay type: biochemical; conditions: 150 min at 23° C
T3 construct: purchased Enzo Life Sciences GmbH, Lörrach, Germany
Source text: Description of the PARP1 Assay
Biochemical Activity Testing of PARP-1: Autoparsylation Assay
The autoparsylation assay is run in two steps: the enzymatic reaction in which His-tagged Parp-1 transfers biotinylated ADP-ribose/ADP-ribose to itself from biotinylated NAD/NAD as co-substrate and the detection reaction where a time resolved FRET between cryptate labelled anti-His antibody bound to the His tag of the enzyme and Xlent® labelled-streptavidin bound the biotin parsylation residue is analysed. The autoparsylation activity is detectable directly via the increase in HTRF signal.
The autoparsylation assay is performed as 384-well HTRF® (Cisbio, Codolet, France) assay format in Greiner low volume nb 384-well microtiter plates. 35 nM His-tagged Parp-1 (human, recombinant, Enzo Life Sciences GmbH, Lörrach, Germany) and a mixture of 125 nM bio-NAD (Biolog, Life science Inst., Bremen, Germany) and 800 nM NAD as co-substrate are incubated in a total volume of 6 μl (100 mM Tris/HCl, 4 mM Mg-chloride, 0.01% IGEPAL® CA630, 1 mM DTT, 0.5% DMSO, pH 8, 13 ng/μl activated DNA (BPS Bioscience, San Diego, US)) in the absence or presence of the test compound (10 dilution concentrations) for 150 min at 23° C. The reaction is stopped by the addition of 4 μl of the Stop/detection solution (70 nM SA-Xlent® (Cisbio, Codolet, France), 2.5 nM Anti-His-K® (Eu-labelled anti-His, Cisbio, Codolet, France) in 50 mM HEPES, 400 mM KF, 0.1% BSA, 20 mM EDTA, pH 7.0). After 1 h incubation at room temperature the HTRF is measured with an Envision multimode reader (Perkin Elmer LAS Germany GmbH) at excitation wavelength 340 nm (laser mode) and emission wavelengths 615 nm and 665 nm. The ratio of the emission signals is determined. The full value used is the inhibitor-free reaction. The pharmacological zero value used is Olaparib (LClabs, Woburn, US) in a final concentration of 1 μM. The inhibitory values (IC50) are determined using either the program Symyx Assay Explorer® or Condosseo® from GeneData.

[3] = biological target: T4, GST-tagged Tnks-1 (1023-1327 aa) (Homo sapiens, UniProt O95271); experiment: TNKS1 activity ELISA (autoparsylation); assay type: biochemical
T4 construct: GST-tagged Tnks-1 (1023-1327 aa, prepared in-house); made in house
Procedure: (§4) Description of the TNKS1 and TNKS2 ELISA Assay
(§5) Biochemical Activity Testing of TNKS 1 and 2: Activity ELISA (Autoparsylation Assay)
(§6) For analysis of autoparsylation activity of TNKS 1 and 2 an activity ELISA is performed: In the first step GST tagged TNKS is captured on a Glutathione coated plate. Then the activity assay with biotinylated NAD is performed in the absence/presence of the compounds. During the enzymatic reaction GST tagged TNKS transfers biotinylated ADP-ribose to itself from biotinylated NAD as co-substrate. For the detection streptavidin-HRP conjugate is added that binds to the biotinylated TNKS and is thereby captured to the plates. The amount of biotinylated resp. autoparsylated TNKS is detected with a luminescence substrate for HRP. The level of the luminescence signal correlates directly with the amount of autoparsylated TNKS and therefore with activity of TNKS.
(§7) The activity ELISA is performed in 384 well Glutathione coated microtiter plates (Express capture Glutathione coated plate, Biocat, Heidelberg, Germany). The plates are pre-equilibrated with PBS. Then the plates are incubated with 50 μl 20 ng/well GST-tagged Tnks-1 (1023-1327 aa, prepared in-house), respectively GST-tagged Tnks-2 (873-1166 aa, prepared in-house) in assay buffer (50 mM HEPES, 4 mM Mg-chloride, 0.05% Pluronic F-68, 2 mM DTT, pH 7.7) overnight at 4° C. The plates are washed 3 times with PBS-Tween-20. The wells are blocked by incubation at room temperature for 20 minutes with 50 μl blocking buffer (PBS, 0.05% Tween-20, 0.5% BSA). Afterwards the plates are washed 3 times with PBS-Tween-20. The enzymatic reaction is performed in 50 μl reaction solution (50 mM HEPES, 4 mM Mg-chloride, 0.05% Pluronic F-68, 1.4 mM DTT, 0.5% DMSO, pH 7.7) with 10 μM bio-NAD (Biolog, Life science Inst., Bremen, Germany) as co-substrate in the absence or presence of the test compound (10 dilution concentrations) for 1 hour at 30° C. The reaction is stopped by 3 times washing with PBS-Tween-20. For the detection 50 μl of 20 ng/μl Streptavidin, HRP conjugate (MoBiTec, Göttingen, Germany) in PBS/0.05% Tween-20/0.01% BSA are added and the plates are incubated for 30 minutes at room temperature. After three times washing with PBS-Tween-20 50 μl of SuperSignal ELISA Femto Maximum sensitivity substrate solution (ThermoFisherScientific (Pierce), Bonn, Germany) are added. Following a 1 minute incubation at room temperature luminescence signals are measured with an Envision multimode reader (Perkin Elmer LAS Germany GmbH) at 700 nm. The full value used is the inhibitor-free reaction. The pharmacological zero value used is XAV-939 (Tocris) in a final concentration of 5 μM. The inhibitory values (IC50) are determined using either the program Symyx Assay Explorer® or Condosseo® from GeneData.

[4] = biological target: T5, GST-tagged Tnks-2 (873-1166 aa) (Homo sapiens, UniProt Q9H2K2); experiment: TNKS2 activity ELISA (autoparsylation); assay type: biochemical
T5 construct: GST-tagged Tnks-2 (873-1166 aa, prepared in-house); made in house
Procedure: as §4, §5, §6, §7

[5] = test system: Tankyrase (Axin2 level in DLD1 cells); experiment: Cellular inhibition of Tankyrase, Axin2 Luminex assay in DLD1 cells; assay type: cell-based; conditions: Homo sapiens, DLD-1, 24 hours, Axin2 level increase, read-out: IC50 Cell assay
Procedure: Measurement of Cellular Inhibition of Tankyrase
Since Tankyrases have been described to modulate cellular level of Axin2 (Huang et al., 2009; Nature) the increase of Axin2 level is used as read-out for determination of cellular inhibition of Tankyrases in a Luminex based assay.
Cells of the colon carcinoma cell line DLD1 are plated in 96 well plates with 1.5×10^4 cells per well. Next day, cells are treated with a serial dilution of test compound in seven steps as triplicates with a final DMSO concentration of 0.3%. After 24 hours, cells are lysed in lysis buffer (20 mM Tris/HCl pH 8.0, 150 mM NaCl, 1% NP40, 10% Glycerol) and lysates are cleared by centrifugation through a 96 well filter plate (0.65 μm). Axin2 protein is isolated from cell lysates by incubation with a monoclonal anti-Axin2 antibody (R&D Systems #MAB6078) that is bound to fluorescent carboxybeads. Then, bound Axin2 is specifically detected with a polyclonal anti-Axin2 antibody (Cell Signaling #2151) and an appropriate PE-fluorescent secondary antibody. The amount of isolated Axin2 protein is determined in a Luminex^200 machine (Luminex Corporation) according to the manufacturer's instruction by counting 100 events per well. Inhibition of Tankyrase by test compounds results in higher levels of Axin2 which directly correlates with an increase of detectable fluorescence. As controls cells are treated with solvent alone (neutral control) and with a Tankyrase reference inhibitor IWR-2 (3E-06 M) which refers as control for maximum increase of Axin2. For analysis, the obtained data are normalized against the untreated solvent control and fitted for determination of the EC50 values using the Assay Explorer software (Accelrys).

[6] = HTRF autoparsylation, 90 min at 30° C, read-out: IC50 TNKS1 enzyme assay
[7] = HTRF autoparsylation, 90 min at 30° C, read-out: IC50 TNKS2 enzyme assay
[8] = activity ELISA, 1 hour at 30° C, read-out: IC50 TNKS1 ELISA
[9] = activity ELISA, 1 hour at 30° C, read-out: IC50 TNKS2 ELISA

T3 sequence (P09874 whole entry): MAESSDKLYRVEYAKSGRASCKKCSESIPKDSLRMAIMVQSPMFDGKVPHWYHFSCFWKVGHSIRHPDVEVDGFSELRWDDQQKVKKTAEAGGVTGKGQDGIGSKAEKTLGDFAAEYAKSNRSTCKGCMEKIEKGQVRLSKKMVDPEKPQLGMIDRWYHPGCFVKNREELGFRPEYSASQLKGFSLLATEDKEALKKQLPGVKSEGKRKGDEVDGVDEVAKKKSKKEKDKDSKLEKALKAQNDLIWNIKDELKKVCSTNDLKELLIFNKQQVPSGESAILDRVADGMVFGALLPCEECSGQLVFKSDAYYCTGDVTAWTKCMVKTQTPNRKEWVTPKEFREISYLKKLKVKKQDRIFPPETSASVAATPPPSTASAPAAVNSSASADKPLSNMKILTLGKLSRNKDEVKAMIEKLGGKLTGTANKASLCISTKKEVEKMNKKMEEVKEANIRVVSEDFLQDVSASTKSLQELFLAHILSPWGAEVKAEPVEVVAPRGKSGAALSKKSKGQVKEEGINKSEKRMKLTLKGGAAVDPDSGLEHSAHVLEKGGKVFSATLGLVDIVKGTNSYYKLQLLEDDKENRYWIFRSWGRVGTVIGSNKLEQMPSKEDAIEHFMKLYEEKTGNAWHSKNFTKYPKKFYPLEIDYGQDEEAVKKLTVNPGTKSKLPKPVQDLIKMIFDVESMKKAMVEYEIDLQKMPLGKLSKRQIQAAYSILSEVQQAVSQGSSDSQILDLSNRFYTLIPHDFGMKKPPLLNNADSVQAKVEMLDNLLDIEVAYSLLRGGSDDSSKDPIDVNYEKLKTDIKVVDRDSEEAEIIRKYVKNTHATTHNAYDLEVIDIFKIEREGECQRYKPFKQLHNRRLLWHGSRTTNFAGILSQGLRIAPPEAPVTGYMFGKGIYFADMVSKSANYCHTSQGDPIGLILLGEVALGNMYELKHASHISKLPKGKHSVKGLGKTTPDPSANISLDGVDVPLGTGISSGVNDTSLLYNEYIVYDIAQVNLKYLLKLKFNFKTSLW
T5 sequence (Q9H2K2 873-1166): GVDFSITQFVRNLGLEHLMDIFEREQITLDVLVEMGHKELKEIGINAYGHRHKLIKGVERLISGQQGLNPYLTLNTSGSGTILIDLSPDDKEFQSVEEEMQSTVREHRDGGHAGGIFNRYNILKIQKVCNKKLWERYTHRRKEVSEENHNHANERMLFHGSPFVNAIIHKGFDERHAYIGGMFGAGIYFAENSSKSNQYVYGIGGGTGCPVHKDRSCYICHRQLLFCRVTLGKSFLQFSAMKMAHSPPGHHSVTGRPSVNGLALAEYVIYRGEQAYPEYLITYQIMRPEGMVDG
T2 sequence (Q9H2K2 873-1166): as above
T1 sequence (O95271 1023-1327): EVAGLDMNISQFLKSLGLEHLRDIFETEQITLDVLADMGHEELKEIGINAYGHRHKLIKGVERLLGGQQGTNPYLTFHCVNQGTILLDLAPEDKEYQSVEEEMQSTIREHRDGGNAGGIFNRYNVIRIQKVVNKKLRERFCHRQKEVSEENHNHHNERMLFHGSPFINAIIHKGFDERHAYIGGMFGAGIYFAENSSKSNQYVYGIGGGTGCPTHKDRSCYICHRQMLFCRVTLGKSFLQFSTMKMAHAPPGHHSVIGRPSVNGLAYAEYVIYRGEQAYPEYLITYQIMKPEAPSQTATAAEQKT
T4 sequence (O95271 1023-1327): as above

Row | Compound | IC50 [1, 6] [µM] | IC50 [2, 7] [µM] | IC50 (His-tagged Parp-1) [µM] | IC50 [3, 8] [µM] | IC50 [4, 9] [µM] | IC50 [1] [µM] | IC50 [2] [µM] | IC50 [3] [µM] | IC50 [4] [µM] | IC50 [5] [µM]
1 | O=C(Cc1cccc(OC(F)(F)F)c1)Nc1nncc2ccccc12 [Compound A5, N-phthalazin-1-yl-2-(3-trifluoromethoxyphenyl)-acetamide] | 0.3 to 3 | 3 to 50 | 3 to 50 | 0.3 to 3 | 0.3 to 3 |  |  |  |  | 
2 | N#Cc1cccc(CC(=O)Nc2nncc3ccccc23)c1 [Compound A6, 2-(3-cyanophenyl)-N-phthalazin-1-yl-acetamide] | 0.3 to 3 | 3 to 50 | 0.3 to 3 | 0.3 to 3 | 0.3 to 3 |  |  |  |  | 
3 | O=C(Cc1cccc([N+](=O)[O-])c1)Nc1nncc2ccccc12 [Compound A7, 2-(3-nitrophenyl)-N-phthalazin-1-yl-acetamide] |  |  | 0.3 to 3 |  |  | 0.3 to 3 | 0.3 to 3 | 0.3 to 3 | 0.3 to 3 | 
4 | O=C(Cc1ccc(OC(F)(F)F)cc1)Nc1nncc2ccccc12 [Compound A8, N-phthalazin-1-yl-2-(4-trifluoromethoxyphenyl)-acetamide] | < 0.3 | 0.3 to 3 | 3 to 50 | < 0.3 | < 0.3 |  |  |  |  | 
5 | CC(C)(C)c1ccc(CC(=O)Nc2nncc3ccccc23)cc1 [Compound A9, 2-(4-tert-butylphenyl)-N-phthalazin-1-yl-acetamide] | 0.3 to 3 | 0.3 to 3 | 3 to 50 | < 0.3 | < 0.3 |  |  |  |  | 
6 | O=C(Cc1c(Cl)cccc1Cl)Nc1nncc2ccccc12 [Compound A10, 2-(2,6-dichlorophenyl)-N-phthalazin-1-yl-acetamide] | 3 to 50 | 3 to 50 | 3 to 50 |  |  |  |  |  |  | 
7 | CCOc1ccc(CC(=O)Nc2nncc3c(F)cccc23)cc1 [Compound A11, 2-(4-ethoxy-phenyl)-N-(5-fluoro-phthalazin-1-yl)-acetamide] | 3 to 50 | 3 to 50 |  |  |  |  |  |  |  | 
8 | COc1ccc(CC(=O)Nc2nncc3c(F)cccc23)cc1 [Compound A12, N-(5-fluoro-phthalazin-1-yl)-2-(4-methoxy-phenyl)-acetamide] | 0.3 to 3 | 3 to 50 |  |  |  |  |  |  |  | 
9 | O=C(CCC1CCCCC1)Nc1nncc2ccccc12 [Compound A13, 3-cyclohexyl-N-phthalazin-1-yl-propionamide] | 0.3 to 3 | 0.3 to 3 | 3 to 50 | < 0.3 | < 0.3 |  |  |  |  | 
10 | O=C(CCc1ccccc1)Nc1nncc2ccccc12 [Compound A14, 3-phenyl-N-phthalazin-1-yl-propionamide] | < 0.3 | 0.3 to 3 |  | < 0.3 | < 0.3 |  |  |  |  | 3 to 50
11 | Cc1cccc2c(NC(=O)Cc3ccccc3)nncc12 [Compound A19, N-(5-methyl-phthalazin-1-yl)-2-phenyl-acetamide] | 3 to 50 | 3 to 50 |  |  |  |  |  |  |  | 
12 | COc1ccc(CC(=O)Nc2nncc3c(C)cccc23)cc1 [Compound A21, 2-(4-methoxy-phenyl)-N-(5-methyl-phthalazin-1-yl)-acetamide] | 3 to 50 | 3 to 50 |  |  |  |  |  |  |  | 
